≈ marks a conversion by molar mass, not a printed value.
Assays:
KB [1] = assay: Cytotoxicity against human KB cells; type: functional, cell-based
L1210 = assay: Cytotoxicity against mouse L1210 cells; type: functional, cell-based
KB [2] = assay: Growth inhibition of human KB cells at 10 ug/ml; type: functional; conditions: read-out: GI

Compound	IC50 (KB [1])	IC50 (L1210)	inhibition of growth at 10 µg/mL (KB [2])
CC1=C(CC/C(C)=C/CC/C(C=O)=C\C=C\C2=CC(=O)O[C@H]2O)C(C)(C)CCC1	2.1 µg/mL (≈ 5.27 µM)	0.45 µg/mL (≈ 1.13 µM)	–
CC1=C(CC/C(C)=C/CC/C(=C/C[C@H]2OC(=O)C=C2CO)CO)C(C)(C)CCC1	–	1.7 µg/mL (≈ 4.22 µM)	36.9%
CC(=O)OC/C(=C\C[C@H]1OC(=O)C=C1CO)CC/C=C(\C)CCC1=C(C)CCCC1(C)C	–	3 µg/mL (≈ 6.75 µM)	44.8%
CC1=C(CC/C(C)=C/CC/C(C=O)=C\C[C@H]2OC(=O)C=C2CO)C(C)(C)CCC1	5.6 µg/mL (≈ 14 µM)	1 µg/mL (≈ 2.5 µM)	–
CC1=C(CC/C(C)=C/CC/C(=C/CC2OC(=O)C=C2CO)CO)C(C)(C)CCC1O (centres undefined) [LUFFARIOLIDE F]	–	1.6 µg/mL (≈ 3.82 µM)	33.4%
CC1=C(CCC(C)(O)/C=C/C/C(=C/CC2OC(=O)C=C2CO)CO)C(C)(C)CCC1 (centres undefined) [LUFFARIOLIDE G]	–	2.8 µg/mL (≈ 6.69 µM)	30.8%
CC1=C(CC/C(C)=C/CCC2=CC[C@H](C3=CC(=O)O[C@H]3O)O[C@H]2O)C(C)(C)CCC1 [MANOALIDE]	0.31 µg/mL (≈ 0.744 µM)	0.032 µg/mL (≈ 0.0768 µM)	–

— ChEMBL document CHEMBL1147347, “Luffariolides F and G, new manoalide derivatives from the Okinawan marine sponge Luffariella sp” (J Nat Prod, 1993)
